PubChem BioAssay (NCI)
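Each compound was tested at five concentrations against cells in 96-well plates for 48 hours. At the TGI there is no net growth.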

Legend:
Test in all cases: DTP human tumour cell line panel, 48 h
OVCAR-3 ovarian = test system: OVCAR-3 ovarian
U251 CNS = test system: U251 CNS
HT29 colon = test system: HT29 colon
MOLT-4 leukemia = test system: MOLT-4 leukemia
NCI-H23 lung = test system: NCI-H23 lung
SW-620 colon = test system: SW-620 colon
CAKI-1 renal = test system: CAKI-1 renal
IGROV1 ovarian = test system: IGROV1 ovarian
SF-539 CNS = test system: SF-539 CNS
HCC-2998 colon = test system: HCC-2998 colon
OVCAR-5 ovarian = test system: OVCAR-5 ovarian
SK-MEL-5 melanoma = test system: SK-MEL-5 melanoma

Row | SMILES | TGI (OVCAR-3 ovarian) [µM] | TGI (U251 CNS) [µM] | TGI (HT29 colon) [µM] | TGI (MOLT-4 leukemia) [µM] | TGI (NCI-H23 lung) [µM] | TGI (SW-620 colon) [µM] | TGI (CAKI-1 renal) [µM] | TGI (IGROV1 ovarian) [µM] | TGI (SF-539 CNS) [µM] | TGI (HCC-2998 colon) [µM] | TGI (OVCAR-5 ovarian) [µM] | TGI (SK-MEL-5 melanoma) [µM]
1 | O=C(CCc1cc(O)cc(O)c1)NCCc1cc(O)cc(O)c1 | > 100 | > 100 | > 100 | > 100 | > 100 | > 100 | > 100 | > 100 | > 100 | > 100 | > 100 | > 100
2 | CC(=O)Nc1ccc(-c2nc3cc(Cl)ccc3o2)cc1 | > 50 | > 50 | > 50 | > 50 | > 50 | > 50 | > 50 | > 50 | > 50 | > 50 | > 50 | > 50
3 | Cc1ccc(C(=O)N/N=C(\N=Nc2ccccc2[N+](=O)[O-])c2ccc(N(C)C)cc2)cc1 | > 100 | > 100 | > 100 | > 100 | > 100 | > 100 | > 100 | > 100 | > 100 | > 100 | > 100 | > 100
4 | Cc1ccc(-c2c3c(n(C4OC(CO)C(O)C(O)C4O)c(=S)c2C#N)CC(C)(C)CC3=O)cc1 (stereo not drawn) | > 100 | > 100 | > 100 | > 100 | > 100 | > 100 | > 100 | > 100 | > 100 | > 100 | > 100 | > 100
5 | CC12CC(C#N)(C#N)C(C#N)(CO1)C(=N)O2 (stereo not drawn) | > 100 | > 100 | > 100 | > 100 | > 100 | > 100 | > 100 | > 100 | > 100 | > 100 | > 100 | > 100
6 | CC(CCC#N)(CCC#N)C(=O)CC(O)(C(F)(F)F)C(F)(F)F | 7.73 | 33.2 | 28.7 | 2.8 | 19.6 | 6.9 | 8.32 | 29.3 | 8.75 | 31.3 | 32.4 | 28.5
7 | O=C(c1cc(Cl)cc(Cl)c1)N1CCN(C(=O)c2cc(Cl)cc(Cl)c2)C1=S | 26.9 | 26.4 | 51.9 | 19.6 | 34.6 | > 50.5 | 25.2 | 32.8 | 22.7 | 31 | 42.2 | 33.7
8 | Cc1cc(C)nc(NS(=O)(=O)c2ccc(NNC(=O)c3cccc4c(=O)c5ccccc5[nH]c34)cc2)n1 | > 100 | > 100 | > 100 | > 100 | > 100 | > 100 | > 100 | > 100 | > 100 | > 100 | > 100 | > 100
9 | COC(=O)C1(OC(=O)Sc2ccccc2)CCN(C)CC1 | > 45.3 | 40.6 | 58 | > 39.8 | 50.2 | 54.9 | 27.8 | 18.7 | 26.5 | > 73 | > 69.6 | > 70.4
